# Data published in ChEMBL document CHEMBL1124893, “1,2,4-Triazolo[4,3-a]pyrazine derivatives with human renin inhibitory activity. 2. Synthesis, biological properties and molecular modeling of hydroxyethylene isostere derivatives” (J Med Chem, 1990).
# Target: T1, Renin (Homo sapiens, UniProt P00797)
# T1 sequence (P00797 whole entry): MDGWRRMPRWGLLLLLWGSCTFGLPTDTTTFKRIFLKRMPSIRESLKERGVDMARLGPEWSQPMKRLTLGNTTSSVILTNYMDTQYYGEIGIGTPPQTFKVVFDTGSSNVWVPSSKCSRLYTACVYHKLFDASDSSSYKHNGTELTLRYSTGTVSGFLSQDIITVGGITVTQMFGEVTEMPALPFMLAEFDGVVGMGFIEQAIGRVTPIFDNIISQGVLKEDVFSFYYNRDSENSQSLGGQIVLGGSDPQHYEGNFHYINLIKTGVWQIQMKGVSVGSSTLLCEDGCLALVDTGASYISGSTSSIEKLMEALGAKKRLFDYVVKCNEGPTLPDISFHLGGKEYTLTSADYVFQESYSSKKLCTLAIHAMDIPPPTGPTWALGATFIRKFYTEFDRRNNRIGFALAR
# Test: Inhibition of human renin
row,IC50 [nM],Structure (SMILES)
1,64,CCCc1nc(-c2cccnc2)cn2c(C(Cc3cccnc3)C(=O)NC(CC3CCCCC3)C(O)CC(C(=O)N3CCOCC3)C(C)C)nnc12 (centres undefined)
2,0.3,CCCc1nc(-c2cccnc2)cn2c(C(Cc3cccnc3)C(=O)NC(CC3CCCCC3)C(O)CC(C(=O)NCCN(C)C)C(C)C)nnc12 (stereo in doubt; e)
3,30,CCCCNC(=O)C(CC(O)C(CC1CCCCC1)NC(=O)Cc1nnc2c(CC(C)C)nc(-c3ccccc3)cn12)C(C)C (centres undefined)
4,0.4,CCCc1nc(-c2cccnc2)cn2c(C(Cc3cccnc3)C(=O)NC(CC3CCCCC3)C(O)CC(C(=O)NCCN3CCOCC3)C(C)C)nnc12 (centres undefined)
5,212,CCCc1nc(-c2cccnc2)cn2c(C(Cc3cccnc3)C(=O)NC(CC3CCCCC3)C(O)CC(C(=O)N(C)CCN(C)C)C(C)C)nnc12 (centres undefined)
6,8.6,"CCCc1nc(-c2cccnc2)cn2c(C(Cc3cccnc3)C(=O)NC(CC3CCCCC3)C(O)CC(C(=O)NCCN(C)C)C(C)C)nnc12 (single isomer, unassigned; less polar)"
7,0.6,CCCc1nc(-c2cccnc2)cn2c(C(Cc3cccnc3)C(=O)NC(CC3CCCCC3)C(O)CC(C(=O)NCc3ccccn3)C(C)C)nnc12 (centres undefined)
8,0.3,CCCc1nc(-c2cccnc2)cn2c(C(Cc3cccnc3)C(=O)NC(CC3CCCCC3)C(O)CC(C(=O)NCCCCO)C(C)C)nnc12 (centres undefined)
9,41,CCCCN(C)C(=O)C(CC(O)C(CC1CCCCC1)NC(=O)C(Cc1cccnc1)c1nnc2c(CCC)nc(-c3cccnc3)cn12)C(C)C (centres undefined)
10,78,CCCc1nc(-c2cccnc2)cn2c(C(Cc3cccnc3)C(=O)NC(CC3CCCCC3)C(O)CC(C(=O)NCCN)C(C)C)nnc12 (centres undefined)
11,2.7,CCCCNC(=O)C(CC(O)C(CC1CCCCC1)NC(=O)Cc1nnc2c(CCC)nc(-c3cccnc3)cn12)C(C)C (centres undefined)
12,26,CCCCNC(=O)[C@@H](CC(O)C(CC1CCCCC1)NC(=O)Cc1nnc2c(CCC)nc(-c3cccnc3)cn12)C(C)C (some centres undefined)
13,0.6,CCCc1nc(-c2cccnc2)cn2c(C(Cc3cccnc3)C(=O)NC(CC3CCCCC3)C(O)CC(C(=O)NCCN3CCNCC3)C(C)C)nnc12 (centres undefined)
14,0.2,CCCCNC(=O)C(CC(O)C(CC1CCCCC1)NC(=O)C(Cc1cccnc1)c1nnc2c(CCC)nc(-c3cccnc3)cn12)C(C)C (centres undefined)
